In publication PMC3454389, “Mining the Sinorhizobium meliloti Transportome to Develop FRET Biosensors for Sugars, Dicarboxylates and Cyclic Polyols” (PLoS ONE, 2012):

What was measured:
SMb20036-CY = SMb20036-CY (Sinorhizobium meliloti, UniProt Q92XC3); test: biochemical; assay type: binding; settings: for change in FRET ratio on addition of compound: compounds similar in structure to D-quinic acid
Method: (§1) Ligand-induced FRET ratio changes of purified FRET biosensor were screened using a LS55 luminescence spectrometer (PerkinElmer Instruments). Excitation (ex.) was at (λ/slit width) 433/10 nm (CFP) or 549/10 nm (OFP). Emission (em.) was measured at 475/10 nm (CFP), 527/10 nm (YFP), 573/10 nm (OFP) and 644/10 nm (RFP). To confirm that Aphrodite and mKate2 were properly folded their fluorescence was individually tested by direct excitation at 510/6 nm and 588/10 nm respectively.
(§2) Affinity constants (Kd) of FRET biosensors with specific ligands were established using a monochromator microplate reader (Safire, Tecan, Switzerland; CFP ex.: (λ\bandwidth) 433/12 nm, em.: 475/12 nm; YFP em.: 527/12 nm. OFP ex.: 533/12 nm, em.: 563/12 nm; RFP em.: 615/12 nm). Proteins were diluted to give relative fluorescence units (RFU) in the detection range of 30,000 to 50,000 RFU at a gain of 90 to 100, and then were added to a dilution series (10^−3 to 10^−11 M) of ligand in Tris-HCl (pH 8.5, 50 mM). The change in relative emission intensities at 527/477 nm (YFP/CFP) or 615/563 nm (RFP/OFP) was used to determine Kd by fitting the titration curves to a single-site-binding isotherm: [drawing 1] with: R, ratio; Rapo, ratio without ligand; Rsat, ratio at saturation of ligand; n, number of equal binding sites; [L], ligand concentration. Non-linear regression was used to fit the curves using SigmaPlot 11 (Systat Software Inc.) (Hill equation, 4 Parameters, b = 1). All measurements were done in quadruplicate.

SMb20036 FBS-RO version = test: FBS-RO version of SMb20036 biosensor, FRET ratio change on ligand; assay type: binding, Sinorhizobium meliloti; settings: FBS-RO version (RFP/OFP) of SMb20036
Method: as §1
as §2, with “Non-linear regression was used to fit the curves using SigmaPlot 11 (Systat Software Inc.) (Hill equation, 4 Parameters, b = 1). All measurements were done in quadruplicate.” left out

SMc04259-CY = SMc04259-CY (Sinorhizobium meliloti, UniProt Q92P64); test: FRET biosensor SMc04259-CY, in vitro ligand titration; assay type: binding; settings: for change in FRET with compound: SMc04259-CY
Method: as §1, §2

[1] = tested on: genes encoding the ABC-transporter (RL2376-9); settings: cited from earlier work
RL2376-CY = target: T1, RL2376-CY (Rhizobium leguminosarum, UniProt Q1MGQ3); test: FRET biosensor RL2376-CY, in vitro ligand titration; assay type: binding
T1 sequence (Q1MGQ3 24-320): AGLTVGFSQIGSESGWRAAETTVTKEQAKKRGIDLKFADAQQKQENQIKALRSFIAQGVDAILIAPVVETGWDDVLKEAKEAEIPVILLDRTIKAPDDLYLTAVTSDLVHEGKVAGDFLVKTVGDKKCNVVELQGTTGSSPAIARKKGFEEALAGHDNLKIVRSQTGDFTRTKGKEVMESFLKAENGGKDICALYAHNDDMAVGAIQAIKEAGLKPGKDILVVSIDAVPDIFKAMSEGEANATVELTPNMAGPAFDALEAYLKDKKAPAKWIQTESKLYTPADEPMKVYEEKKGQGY
Method: as §1, §2

SMc02324-CY = SMc02324-CY (Sinorhizobium meliloti, UniProt Q92S11); test: FRET biosensor SMc02324-CY, in vitro ligand titration; assay type: binding
Method: as §1, §2

SMc02324-RO = SMc02324-RO (Sinorhizobium meliloti, UniProt Q92S11); test: FRET biosensor SMc02324-RO, in vitro ligand titration; assay type: binding; settings: pROS (pLMB523), Tris-HCl pH 8.5
Method: as §1
as §2, with “Non-linear regression was used to fit the curves using SigmaPlot 11 (Systat Software Inc.) (Hill equation, 4 Parameters, b = 1). All measurements were done in quadruplicate.” left out

SMc02774-CY = SMc02774-CY (Sinorhizobium meliloti, UniProt Q92TD7); test: FRET biosensor SMc02774-CY, in vitro ligand titration; assay type: binding; settings: SMc02774-CY
Method: as §1, §2

rcc03024-CY (DctP) = target: T2, rcc03024-CY (DctP) (Rhodobacter capsulatus, UniProt P37735); test: FRET biosensor rcc03024-CY, in vitro ligand titration; assay type: binding; settings: for ΔFRET on saturation (%): change in FRET ratio on ligand binding; for Kd: pCYS (pLMB414), Tris-HCl pH 8.5
T2 construct: made in house; host or cells: E. coli Rosetta2
T2 sequence (P37735 27-333): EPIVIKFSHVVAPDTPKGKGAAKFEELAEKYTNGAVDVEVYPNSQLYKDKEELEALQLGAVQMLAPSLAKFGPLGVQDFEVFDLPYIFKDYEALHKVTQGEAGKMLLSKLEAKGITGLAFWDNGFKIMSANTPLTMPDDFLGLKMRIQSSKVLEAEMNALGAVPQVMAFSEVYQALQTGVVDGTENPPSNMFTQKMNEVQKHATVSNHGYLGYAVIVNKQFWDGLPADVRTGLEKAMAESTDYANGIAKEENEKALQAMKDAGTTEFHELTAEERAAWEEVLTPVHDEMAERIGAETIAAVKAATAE
Text: Ligand-induced FRET ratio changes of purified FRET biosensor were screened using a LS55 luminescence spectrometer (PerkinElmer Instruments).
Non-linear regression was used to fit the curves using SigmaPlot 11 (Systat Software Inc.) (Hill equation, 4 Parameters, b = 1). All measurements were done in quadruplicate.

rcc03024-RO = target: T3, rcc03024-RO (Rhodobacter capsulatus, UniProt P37735); test: rcc03024-RO, FRET ratio change on ligand; assay type: binding
T3 construct: made in house; host or cells: E. coli Rosetta2
T3 sequence (P37735 27-333): T2 sequence (P37735 27-333)
Method: as §1
as §2, with “Non-linear regression was used to fit the curves using SigmaPlot 11 (Systat Software Inc.) (Hill equation, 4 Parameters, b = 1). All measurements were done in quadruplicate.” left out

SMc04259-RO = test: SMc04259-RO, FRET ratio change on ligand; assay type: binding, Sinorhizobium meliloti
Method: as §1
as §2, with “Non-linear regression was used to fit the curves using SigmaPlot 11 (Systat Software Inc.) (Hill equation, 4 Parameters, b = 1). All measurements were done in quadruplicate.” left out

SMb20712-CY = target: T4, SMb20712-CY (Sinorhizobium meliloti, UniProt Q926E6); test: FRET biosensor SMb20712-CY, in vitro ligand titration; assay type: binding
T4 sequence (Q926E6 21-309): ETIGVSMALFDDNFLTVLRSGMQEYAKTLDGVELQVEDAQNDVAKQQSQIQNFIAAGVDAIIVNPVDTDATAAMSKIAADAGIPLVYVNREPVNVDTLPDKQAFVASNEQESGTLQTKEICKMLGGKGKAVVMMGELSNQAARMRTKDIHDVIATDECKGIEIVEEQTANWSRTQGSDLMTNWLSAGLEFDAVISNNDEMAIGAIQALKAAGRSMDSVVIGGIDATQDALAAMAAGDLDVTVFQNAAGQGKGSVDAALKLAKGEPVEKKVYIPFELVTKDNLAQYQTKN
Method: as §1, §2

SMc02324-CY, sequence (Q92S11 entry or part of it): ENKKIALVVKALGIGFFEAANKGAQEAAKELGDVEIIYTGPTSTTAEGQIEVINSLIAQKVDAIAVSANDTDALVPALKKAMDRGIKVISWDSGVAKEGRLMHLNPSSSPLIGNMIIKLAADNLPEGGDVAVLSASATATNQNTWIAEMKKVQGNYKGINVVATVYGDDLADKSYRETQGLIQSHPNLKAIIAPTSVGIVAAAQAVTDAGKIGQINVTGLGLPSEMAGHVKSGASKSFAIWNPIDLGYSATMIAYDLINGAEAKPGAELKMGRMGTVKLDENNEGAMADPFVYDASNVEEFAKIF
SMc04259-CY, sequence (Q92P64 entry or part of it): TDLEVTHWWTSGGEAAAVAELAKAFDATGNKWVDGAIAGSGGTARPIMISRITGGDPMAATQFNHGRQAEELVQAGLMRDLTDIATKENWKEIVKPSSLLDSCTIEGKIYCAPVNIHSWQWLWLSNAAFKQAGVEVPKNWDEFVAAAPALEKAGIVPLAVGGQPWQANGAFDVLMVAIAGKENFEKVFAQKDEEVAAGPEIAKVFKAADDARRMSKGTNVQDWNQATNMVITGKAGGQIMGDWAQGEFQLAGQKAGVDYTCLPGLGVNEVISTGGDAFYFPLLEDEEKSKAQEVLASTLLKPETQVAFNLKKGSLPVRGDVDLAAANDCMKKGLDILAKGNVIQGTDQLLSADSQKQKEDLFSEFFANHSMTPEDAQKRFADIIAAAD
SMb20036-CY, sequence (Q92XC3 entry or part of it): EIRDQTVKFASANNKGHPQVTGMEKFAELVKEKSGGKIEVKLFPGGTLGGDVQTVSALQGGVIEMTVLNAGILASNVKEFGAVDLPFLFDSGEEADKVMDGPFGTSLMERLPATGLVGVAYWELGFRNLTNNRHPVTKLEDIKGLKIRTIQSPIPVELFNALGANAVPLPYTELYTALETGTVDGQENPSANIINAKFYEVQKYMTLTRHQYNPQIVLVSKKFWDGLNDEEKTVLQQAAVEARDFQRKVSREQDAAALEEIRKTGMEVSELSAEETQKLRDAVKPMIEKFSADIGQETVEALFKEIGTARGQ
SMc02774-CY, sequence (Q92TD7 entry or part of it): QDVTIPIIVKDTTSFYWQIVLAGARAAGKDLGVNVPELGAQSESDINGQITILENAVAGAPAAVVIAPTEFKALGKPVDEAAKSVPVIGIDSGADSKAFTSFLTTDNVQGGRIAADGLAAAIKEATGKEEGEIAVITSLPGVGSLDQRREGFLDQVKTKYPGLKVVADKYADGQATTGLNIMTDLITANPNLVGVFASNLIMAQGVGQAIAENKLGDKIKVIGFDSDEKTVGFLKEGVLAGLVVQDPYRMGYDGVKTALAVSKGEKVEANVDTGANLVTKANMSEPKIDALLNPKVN
SMc02324-RO, sequence (Q92S11 entry or part of it): as the sequence (Q92S11 entry or part of it) above

In the case of `O=C(O)c1ccccc1` [benzoic acid], the “change in FRET ratio on addition of compound” value (SMb20036-CY) is reported as “no change in FRET ratio”.

With `O=C(O)[C@]1(O)C[C@@H](O)[C@@H](O)[C@H](O)C1` [D-quinic acid] the “difference in the affinity for D-quinic acid compared with that for shikimic acid” value (SMb20036-CY) was > 15,000 fold, the Kd (SMb20036-CY; pCYS (pLMB229), Tris-HCl pH 8.5) was 5.9 nM and the “change in FRET ratio on binding ligand” value (SMb20036 FBS-RO version) was “no change in FRET ratio”.

With `OC[C@H]1O[C@@H](O[C@@H]2[C@@H](CO)OC(O)(CO)[C@H]2O)[C@H](O)[C@@H](O)[C@H]1O` (mixture of isomers) [lactulose] the “change in FRET with compound” value (SMc04259-CY) was “no change in FRET”.

In the case of `O=C[C@H](O)[C@@H](O)[C@H](O)CO` [xylose], the “change in FRET with compound” value (SMc04259-CY) is reported as “no change in FRET”.

In the case of `OC1OC[C@@H](O)[C@@H](O)[C@@H]1O` (stereo partly drawn) [D-arabinose], the “Inducer of gene expression (fold change)” value ([1]; RL2376, Table 1) is given as “D-arabinose (3.6) fold”, the “induction of genes RL2376-9 (fold)” value ([1]; microarray, compared with cells grown on glucose) is given as “up to 3.6 fold” and the “change in FRET ratio on addition of compound” value (RL2376-CY) is given as “no change in FRET ratio”.

In the case of `C[C@H](O)[C@H](O)[C@@H](O)[C@@H](O)C=O` [L-rhamnose], the “difference in affinity of SMc02324 for L-rhamnose compared to L-fucose” value (SMc02324-CY) is reported as “three order-magnitude difference”, the Kd (SMc02324-CY; SMc02324-CY, pCYS (pLMB291), Tris-HCl pH 8.5) is reported as 7.3 nM and the Kd (SMc02324-RO) is reported as 6.9 nM. For the same molecule, the Kd (SMc02774-CY; pCYS (pLMB292), Tris-HCl pH 8.5) was 1600 nM.

With `OC[C@@H](O)[C@@H](O)CO` [erythritol] the “reaction of biosensor with compound (FRET)” value (“reaction of biosensor” below) (SMc02324-CY; SMc02324-CY) was “did not react”.

With `O=C(O)/C=C/C(=O)O` [fumarate] the “ΔFRET on saturation (%)” value (rcc03024-CY (DctP)) was −2.7±0.2% and the Kd (rcc03024-CY (DctP)) was 58 nM.

`OC[C@@H](O)[C@@H]1OC(O)[C@H](O)[C@H]1O` (stereo partly drawn) [D-galactofuranose] showed a Kd (RL2376-CY; hypothetical solution of pure D-galactofuranose, furanoses 7.7% of D-galactose in solution, read-out: estimated Kd for D-galactofuranose specifically) of 408 ± 131 nM.

In the case of `O=C(O)CC(=O)O` [malonate], the “change in FRET ratio on addition of compound” value (rcc03024-CY (DctP)) is reported as “no change in FRET ratio”.

For `CC(=O)N[C@H]1[C@H]([C@H](O)[C@H](O)CO)OC(O)(C(=O)O)C[C@@H]1O` (some centres unmarked) [N-acetyl-5-neuraminic acid], the “change in FRET ratio on addition of compound” value (SMb20036-CY) was “no change in FRET ratio”.

For `CC(=O)C(=O)O` [pyruvate], the “change in FRET ratio on addition of compound” value (rcc03024-CY (DctP)) was “no change in FRET ratio” and the “reaction of biosensor” value (SMc02774-CY) was “did not react”.

With `O=C(O)CCC(=O)O` [succinate] the “ΔFRET on saturation (%)” value (rcc03024-CY (DctP)) was −2.7±0.2%, the Kd (rcc03024-CY (DctP)) was 36 nM and the “change in FRET ratio on binding ligand” value (rcc03024-RO) was “no change in FRET ratio”.

For `O=C[C@H](O)[C@@H](O)[C@H](O[C@@H]1O[C@H](CO)[C@@H](O)[C@H](O)[C@H]1O)[C@H](O)CO` [cellobiose], the Kd (SMc04259-CY) was 33 nM and the “change in FRET ratio on binding ligand” value (SMc04259-RO) was “no change in FRET ratio”.

In the case of `C[C@H]1OC(O)[C@H](O)[C@@H](O)[C@H]1O` (stereo partly drawn) [D-fucose], the “reaction of biosensor” value (SMc02324-CY; SMc02324-CY) is reported as “did not react” and the “reaction of biosensor” value (SMc02774-CY) is reported as “did not react”.

With `O=P(O)(O)O[C@@H]1[C@H](O)[C@H](O)[C@@H](OP(=O)(O)O)[C@H](OP(=O)(O)O)[C@H]1O` [inositol 1,4,5-trisphosphate] the “reaction of biosensor” value (SMb20712-CY) was “did not react”.
